Measurements from patent publication US20070027088A1 (priority 2003, published 2007).
Entries after “also recorded” stand apart in the source; their conditions may differ. Where a SMILES comes first, the peptide text is derived from it. [ ]: non-standard residue; d: D form.

test system: human PBMCs stimulated with SEB; type: cell-based; conditions: not given

Compound	inhibition of SEB proliferation (words)	inhibition of blastogenesis	inhibitory activity of alanine substitution constructs	inhibition of proliferative effects of the toxin	loss of inhibiting activity compared with original 12-mer peptide	inhibition of SEB proliferation
CSCC[C@@H](NC(=O)[C@H](N)CS)C(=O)N[C@H](Cc1ccc(O)cc1)C(=O)O [CMY*] (H-[dC]-[dM]-[dY]-OH)	significantly greater inhibitory effects than the control 12-mer peptide or their respective L-conformation peptides; also recorded: most effective in blocking superantigen activity					
CSCC[C@@H](NC(=O)[C@H](N)Cc1ccc(O)cc1)C(=O)N[C@H](CS)C(=O)O [YMC*] (H-[dY]-[dM]-[dC]-OH)	significantly greater inhibitory effects than the control 12-mer peptide or their respective L-conformation peptides; also recorded: most effective in blocking superantigen activity					
AAA [reference compound]		not effective				
AMY		effective in inhibiting blastogenesis of the toxins				
AMYGGVTEHEGN [SEQ ID NO: 8]			significant loss of the inhibitory properties			
CAY		effective in inhibiting blastogenesis of the toxins				
CAYGGVTEHEGN [SEQ ID NO: 9]			significant loss of the inhibitory properties			
CMAGGVTEHEGN [SEQ ID NO: 10]			significant loss of the inhibitory properties; also recorded: complete loss of the inhibitory properties			
CMYG				comparatively little effect in the inhibition of toxin regardless of concentration		
CMYGGV					52%	
CMYGGVAEHEGN [A at 7]			better inhibition of biological activity than the original 12-mer peptide			
CMYGGVTAHEGN [A at 8]			better inhibition of biological activity than the original 12-mer peptide			
CMYGGVTEHE					54%	
CMYGGVTEHEG					18%	
CMYGK	comparable to that of the original 12 amino acid peptide; also recorded: more effectively than the 12-mer peptide 6343					
CMYKK	comparable and at high concentrations better than the original 12-mer peptide; also recorded: more effectively than the 12-mer peptide 6343					
CYM		effective in inhibiting blastogenesis of the toxins				
EHEGNCMYGGVT [6343S, reference compound]	minimal effect on bacterial toxin proliferation					less than 20%
MYC		effective in inhibiting blastogenesis of the toxins				
MYGGVTEHEGN					approximately 30%	
TEHEGN					48%	
TTT [reference compound]		not effective				
YGGVTEHEGN					approximately 50%	
YYY [reference compound]		not inhibitory				
acetylated CMY	did not significantly change the inhibitory effects of CMY					
cmy-NH2		effective in inhibiting blastogenesis of the toxins				
cmy-OH		effective in inhibiting blastogenesis of the toxins				

test system: superantigen shock in Balb/c mice (SEB); conditions: mouse, in vivo

Compound	protection against superantigen shock
CSCC[C@@H](NC(=O)[C@H](N)CS)C(=O)N[C@H](Cc1ccc(O)cc1)C(=O)O [CMY*] (H-[dC]-[dM]-[dY]-OH)	provided some protection against superantigen-induced shock
CSCC[C@@H](NC(=O)[C@H](N)Cc1ccc(O)cc1)C(=O)N[C@H](CS)C(=O)O [YMC*] (H-[dY]-[dM]-[dC]-OH)	quite effective in protecting mice against shock

same assay, conditions: mouse, in vivo, ip

Compound	% SURVIVAL	SURVIVORS/INJECTED
CSCC[C@@H](NC(=O)[C@H](N)CS)C(=O)N[C@H](Cc1ccc(O)cc1)C(=O)O [CMY*] (H-[dC]-[dM]-[dY]-OH)	33%	2/6
CSCC[C@@H](NC(=O)[C@H](N)Cc1ccc(O)cc1)C(=O)N[C@H](CS)C(=O)O [YMC*] (H-[dY]-[dM]-[dC]-OH)	83%	5/6

test system: IL-2 RNA; conditions: cited from earlier work

Compound	inhibition of expression of IL-2 RNA
YNKKKATVQELD	18-40 fold

test system: bacterial toxins; conditions: mouse, in vivo; cited from earlier work

Compound	rescue from lethal effects of bacterial toxins
YNKKKATVQELD	rescues mice from the lethal effects of bacterial toxins
